Test results published in ChEMBL document CHEMBL1201862, “PubChem BioAssay data set” (2004).
Calls of active or inactive are those of the source.

Tests used:
[1] = biological target: Glyceraldehyde-3-phosphate dehydrogenase (Homo sapiens, UniProt P04406)
Bcl-2-related protein A1 [2] = biological target: T1, Bcl-2-related protein A1 (Mus musculus, UniProt Q07440); test: Bfl-1 binding inhibitors, SAR follow-up, biochemical, fluorescence polarization (AID 1070)
T1 sequence (Q07440 whole entry): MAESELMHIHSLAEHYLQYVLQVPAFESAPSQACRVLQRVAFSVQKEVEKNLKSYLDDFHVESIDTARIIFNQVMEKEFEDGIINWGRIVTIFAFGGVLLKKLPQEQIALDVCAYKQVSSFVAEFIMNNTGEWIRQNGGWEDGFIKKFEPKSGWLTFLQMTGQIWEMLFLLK

Bcl-2-related protein A1 [3] = biological target: T1, Bcl-2-related protein A1; test: Bfl-1 inhibitors blocking BH3 peptide binding, confirmation, biochemical, TR-FRET, mouse Bfl-1 (AID 621);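 further: TR-FRET binding of GST-Bfl-1 to FITC-labelled Bid peptide via terbium antibody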
[4] = biological target: T2, Zinc finger protein mex-5 (Caenorhabditis elegans, UniProt Q9XUB2); test: MEX-5/TCR-2 RNA interaction inhibitors, dose response, biochemical, C. elegans, fluorescence polarization (AID 1960)
T2 sequence (Q9XUB2 whole entry): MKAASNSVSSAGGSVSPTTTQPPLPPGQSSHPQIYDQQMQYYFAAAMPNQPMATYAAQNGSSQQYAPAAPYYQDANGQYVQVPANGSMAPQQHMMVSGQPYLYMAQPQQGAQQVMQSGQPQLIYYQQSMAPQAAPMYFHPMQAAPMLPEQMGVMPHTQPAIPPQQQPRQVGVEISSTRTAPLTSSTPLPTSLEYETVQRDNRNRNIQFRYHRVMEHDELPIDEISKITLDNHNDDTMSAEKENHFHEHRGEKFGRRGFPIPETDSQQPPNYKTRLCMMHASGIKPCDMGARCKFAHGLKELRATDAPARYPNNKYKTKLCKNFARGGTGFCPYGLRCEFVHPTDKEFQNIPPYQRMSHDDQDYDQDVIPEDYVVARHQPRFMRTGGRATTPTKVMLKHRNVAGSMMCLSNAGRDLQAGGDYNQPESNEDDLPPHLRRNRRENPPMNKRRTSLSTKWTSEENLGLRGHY

[5] = biological target: T3, RNA-binding protein pos-1 (Caenorhabditis elegans, UniProt G5EF15); test: inhibitors of POS-1/mex-3 RNA binding, dose response, biochemical, fluorescence polarization (AID 1964);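 further: purified POS-1 fused to maltose binding protein made in E. coli; potency of compounds blocking POS-1 binding to fluorescent RNA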
T3 sequence (G5EF15 whole entry): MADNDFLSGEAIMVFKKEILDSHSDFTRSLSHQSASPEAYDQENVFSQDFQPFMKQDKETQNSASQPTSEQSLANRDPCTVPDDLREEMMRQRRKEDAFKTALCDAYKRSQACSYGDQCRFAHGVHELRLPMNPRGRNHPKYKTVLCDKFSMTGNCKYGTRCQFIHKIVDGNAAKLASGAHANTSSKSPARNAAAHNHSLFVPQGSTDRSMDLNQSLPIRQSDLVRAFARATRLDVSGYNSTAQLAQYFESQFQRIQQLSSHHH

[6] = biological target: Heat shock protein HSP 90-alpha (Homo sapiens, UniProt P07900); test: Luminescence-based dose response biochemical high throughput screening assay for inhibitors of the Heat Shock Protein 90 (HSP90). [Related pubchem assays: 1831 (Summary AID.), 1846 (Confirmation screen.), 1789 (Primary screen.)]
Estrogen receptor beta = Estrogen receptor beta (Homo sapiens, UniProt Q92731);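 further: recombinant ER-beta bound to coactivator SRC1 peptide in presence of estradiol agonist; inhibitors block coactivator peptide binding and lower the FRET signal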
[7] = biological target: T4, Sphingosine 1-phosphate receptor 2 (Homo sapiens, UniProt O95136); test: Dose Response Cell Based Assay for Agonists of the S1P2 Receptor of Purchased Analogues. [Related pubchem assays: 729, 843, 854, 736 ]; assay type: functional
[8] = inhibitors of intracellular T. cruzi replication, confirmation, NIH3T3 host cells, beta-gal luminescence (AID 2044); assay type: functional, cell-based;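 further: intracellular parasites grown in NIH/3T3 mouse fibroblasts as host cells; luminescent beta-galactosidase reporter signal from transgenic T. cruzi replicating inside host cells; inhibitors lower the luminescence signal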
[9] = cytotoxicity toward NIH3T3 fibroblasts, dose response, counter-screen, cell-based, ATP luminescence, mouse fibroblasts (AID 2010); assay type: functional;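 further: cells exposed to compound for about 90 hours before reading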
[10] = biological target: Voltage-gated inwardly rectifying potassium channel KCNH2 (Homo sapiens, UniProt Q12809); test: hERG protection from proarrhythmic block, potency, dose response, cell-based, thallium flux (AID 2121); assay type: ADME
Cytochrome P450 2C19 = Cytochrome P450 2C19 (Homo sapiens, UniProt P33261); test: qHTS Assay for Inhibitors and Substrates of Cytochrome P450 2C19. [Related pubchem assays: 410 ]; assay type: ADME; conditions: read-out: Potency
[11] = biological target: Nuclear receptor subfamily 5 group A member 2 (Homo sapiens, UniProt O00482); assay type: functional, cell-based;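 further: HEK293T cells transfected with LRH-1 and a StAR promoter luciferase reporter; potency for inhibitors that lower LRH-1 driven reporter light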
Steroidogenic factor 1 = Steroidogenic factor 1 (Homo sapiens, UniProt Q13285); test: Counterscreen for inverse agonists of the liver receptor homolog-1 (LRH-1; NR5A2): Luminescence-based cell-based high throughput dose response assay to identify inverse agonists of the Steroidogenic Factor 1 Nuclear Receptor (SF1; NR5A1).; assay type: functional
[12] = biological target: Mitogen-activated protein kinase 10 (Homo sapiens, UniProt P53779); test: Dose response biochemical screening assay for inhibitors of c-Jun N-Terminal Kinase 3 (JNK3). [Related pubchem assays: 746 ]
[13] = StAR promoter reporter inhibition counter-screen, dose response, counter-screen for LRH-1 inverse agonist project, cell-based, luminescence, luciferase reporter (AID 651969); assay type: functional
[14] = biological target: T4, Sphingosine 1-phosphate receptor 2; test: Dose Response Cell Based Assay for Agonists of the S1P2 Receptor. [Related pubchem assays: 729, 736, 843 ]; assay type: functional
HEK293 [15] = test: cells; assay type: functional, cell-based; conditions: Homo sapiens
HEK293 [16] = test: cells; assay type: functional, cell-based; conditions: Homo sapiens; remark: listed apart in the source
HEK293 [17] = test: NOD1 signaling inhibitors, primary screen, cell-based, luminescence, uHTS (AID 1578); assay type: functional; conditions: Homo sapiens
HEK293 [18] = test: NOD2 signaling inhibitors in MDP-stimulated cells, cell-based, uHTS, luminescence (AID 2001); assay type: functional; conditions: Homo sapiens
[19] = biological target: T5, Sentrin-specific protease 8 (Homo sapiens, UniProt Q96LD8); assay type: functional;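 further: luminescence read-out of SENP8 inhibition, dose-response confirmation following an ultra-high-throughput screen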
T5 sequence (Q96LD8 whole entry): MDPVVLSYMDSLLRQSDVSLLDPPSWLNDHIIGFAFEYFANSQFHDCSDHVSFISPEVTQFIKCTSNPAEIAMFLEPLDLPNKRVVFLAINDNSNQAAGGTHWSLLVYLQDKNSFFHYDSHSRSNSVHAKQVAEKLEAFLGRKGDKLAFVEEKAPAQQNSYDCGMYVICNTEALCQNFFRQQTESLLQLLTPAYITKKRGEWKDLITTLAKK

Caspase-3 = biological target: T6, Caspase-3 (Homo sapiens, UniProt P42574); assay type: functional;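 further: Dose-response selectivity test against caspase-3 for candidate inhibitors of sentrin-specific proteases (SENPs)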
T6 sequence (P42574 whole entry): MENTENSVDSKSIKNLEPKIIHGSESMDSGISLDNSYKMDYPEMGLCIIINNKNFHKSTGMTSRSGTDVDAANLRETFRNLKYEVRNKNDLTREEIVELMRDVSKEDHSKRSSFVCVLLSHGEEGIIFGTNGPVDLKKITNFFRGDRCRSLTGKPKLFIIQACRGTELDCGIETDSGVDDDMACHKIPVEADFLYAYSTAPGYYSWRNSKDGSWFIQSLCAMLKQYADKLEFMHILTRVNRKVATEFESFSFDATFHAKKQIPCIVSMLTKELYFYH

[20] = biological target: T7, Sentrin-specific protease 7 (Homo sapiens, UniProt Q9BQF6); assay type: functional;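 further: Luminescence-based dose-response confirmation of ultra-high-throughput screening hits, measuring inhibition of SENP7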
T7 sequence (Q9BQF6 whole entry): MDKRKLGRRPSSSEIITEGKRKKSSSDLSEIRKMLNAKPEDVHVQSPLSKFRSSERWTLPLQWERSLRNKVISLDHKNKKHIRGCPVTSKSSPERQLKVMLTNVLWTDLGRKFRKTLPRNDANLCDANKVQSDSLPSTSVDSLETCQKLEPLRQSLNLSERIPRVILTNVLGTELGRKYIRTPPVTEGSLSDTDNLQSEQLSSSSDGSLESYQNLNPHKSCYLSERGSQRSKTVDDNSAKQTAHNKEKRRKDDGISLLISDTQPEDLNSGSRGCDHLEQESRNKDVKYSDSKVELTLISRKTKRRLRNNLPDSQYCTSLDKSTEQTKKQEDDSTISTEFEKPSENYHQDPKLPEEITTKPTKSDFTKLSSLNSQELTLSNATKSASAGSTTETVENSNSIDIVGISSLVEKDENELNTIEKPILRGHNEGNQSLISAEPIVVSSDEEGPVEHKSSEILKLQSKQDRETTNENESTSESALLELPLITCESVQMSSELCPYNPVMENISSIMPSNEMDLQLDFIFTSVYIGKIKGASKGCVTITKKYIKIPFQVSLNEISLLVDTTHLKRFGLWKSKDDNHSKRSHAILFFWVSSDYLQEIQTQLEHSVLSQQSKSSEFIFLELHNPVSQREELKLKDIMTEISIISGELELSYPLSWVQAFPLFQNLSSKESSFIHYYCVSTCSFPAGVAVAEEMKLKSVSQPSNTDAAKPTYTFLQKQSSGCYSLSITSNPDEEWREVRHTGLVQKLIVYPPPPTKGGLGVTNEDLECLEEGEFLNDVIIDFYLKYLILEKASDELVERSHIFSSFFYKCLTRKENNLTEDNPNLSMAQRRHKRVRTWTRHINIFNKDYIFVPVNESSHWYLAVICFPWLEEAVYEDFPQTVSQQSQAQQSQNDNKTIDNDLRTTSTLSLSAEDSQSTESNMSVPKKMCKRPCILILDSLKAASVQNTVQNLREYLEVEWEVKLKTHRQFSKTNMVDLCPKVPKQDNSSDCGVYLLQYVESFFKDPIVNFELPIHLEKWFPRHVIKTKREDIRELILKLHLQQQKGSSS

[21] = biological target: T8, Sentrin-specific protease 6 (Homo sapiens, UniProt Q9GZR1); assay type: functional;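 further: Luminescence-based dose-response confirmatory assay of SENP6 inhibition, following up an ultra-high-throughput screen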
T8 sequence (Q9GZR1 whole entry): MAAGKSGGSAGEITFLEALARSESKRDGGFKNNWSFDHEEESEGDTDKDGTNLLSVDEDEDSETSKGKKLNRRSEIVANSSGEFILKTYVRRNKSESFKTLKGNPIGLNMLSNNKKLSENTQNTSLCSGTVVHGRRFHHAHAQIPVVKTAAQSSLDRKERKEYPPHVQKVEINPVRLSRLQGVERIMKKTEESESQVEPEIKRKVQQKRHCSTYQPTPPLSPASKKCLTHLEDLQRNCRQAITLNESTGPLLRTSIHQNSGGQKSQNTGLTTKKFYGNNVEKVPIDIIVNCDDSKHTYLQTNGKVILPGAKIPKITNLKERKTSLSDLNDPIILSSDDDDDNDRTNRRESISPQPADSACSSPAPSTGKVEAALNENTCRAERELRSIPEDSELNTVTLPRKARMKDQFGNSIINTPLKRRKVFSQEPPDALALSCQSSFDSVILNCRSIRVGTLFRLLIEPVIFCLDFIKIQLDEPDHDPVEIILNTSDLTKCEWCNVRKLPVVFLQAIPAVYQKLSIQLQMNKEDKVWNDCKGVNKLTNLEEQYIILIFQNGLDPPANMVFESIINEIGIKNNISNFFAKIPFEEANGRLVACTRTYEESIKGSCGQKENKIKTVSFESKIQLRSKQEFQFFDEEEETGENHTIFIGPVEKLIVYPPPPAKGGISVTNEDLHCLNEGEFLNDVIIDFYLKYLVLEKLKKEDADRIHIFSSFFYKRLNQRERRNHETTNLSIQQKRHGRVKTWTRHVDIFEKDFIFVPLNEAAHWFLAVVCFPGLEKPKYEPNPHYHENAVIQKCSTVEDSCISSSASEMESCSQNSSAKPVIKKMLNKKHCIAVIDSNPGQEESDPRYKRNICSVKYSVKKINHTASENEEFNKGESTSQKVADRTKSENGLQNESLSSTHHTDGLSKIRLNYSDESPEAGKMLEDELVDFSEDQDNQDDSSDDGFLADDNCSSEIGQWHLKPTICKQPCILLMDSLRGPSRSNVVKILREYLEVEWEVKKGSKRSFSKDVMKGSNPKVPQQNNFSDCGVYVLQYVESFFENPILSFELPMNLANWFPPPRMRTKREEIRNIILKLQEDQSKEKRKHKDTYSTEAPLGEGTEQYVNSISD

T4 sequence (O95136 whole entry): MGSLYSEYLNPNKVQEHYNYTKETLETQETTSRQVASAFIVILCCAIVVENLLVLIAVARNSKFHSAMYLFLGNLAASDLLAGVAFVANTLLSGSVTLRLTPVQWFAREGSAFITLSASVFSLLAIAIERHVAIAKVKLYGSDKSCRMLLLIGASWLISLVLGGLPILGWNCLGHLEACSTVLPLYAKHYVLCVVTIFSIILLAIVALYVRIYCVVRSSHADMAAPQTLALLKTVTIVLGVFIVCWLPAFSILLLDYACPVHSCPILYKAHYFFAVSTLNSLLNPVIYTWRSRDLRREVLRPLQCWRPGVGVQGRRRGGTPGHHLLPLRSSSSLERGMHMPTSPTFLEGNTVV
Voltage-gated inwardly rectifying potassium channel KCNH2, sequence (Q12809 whole entry): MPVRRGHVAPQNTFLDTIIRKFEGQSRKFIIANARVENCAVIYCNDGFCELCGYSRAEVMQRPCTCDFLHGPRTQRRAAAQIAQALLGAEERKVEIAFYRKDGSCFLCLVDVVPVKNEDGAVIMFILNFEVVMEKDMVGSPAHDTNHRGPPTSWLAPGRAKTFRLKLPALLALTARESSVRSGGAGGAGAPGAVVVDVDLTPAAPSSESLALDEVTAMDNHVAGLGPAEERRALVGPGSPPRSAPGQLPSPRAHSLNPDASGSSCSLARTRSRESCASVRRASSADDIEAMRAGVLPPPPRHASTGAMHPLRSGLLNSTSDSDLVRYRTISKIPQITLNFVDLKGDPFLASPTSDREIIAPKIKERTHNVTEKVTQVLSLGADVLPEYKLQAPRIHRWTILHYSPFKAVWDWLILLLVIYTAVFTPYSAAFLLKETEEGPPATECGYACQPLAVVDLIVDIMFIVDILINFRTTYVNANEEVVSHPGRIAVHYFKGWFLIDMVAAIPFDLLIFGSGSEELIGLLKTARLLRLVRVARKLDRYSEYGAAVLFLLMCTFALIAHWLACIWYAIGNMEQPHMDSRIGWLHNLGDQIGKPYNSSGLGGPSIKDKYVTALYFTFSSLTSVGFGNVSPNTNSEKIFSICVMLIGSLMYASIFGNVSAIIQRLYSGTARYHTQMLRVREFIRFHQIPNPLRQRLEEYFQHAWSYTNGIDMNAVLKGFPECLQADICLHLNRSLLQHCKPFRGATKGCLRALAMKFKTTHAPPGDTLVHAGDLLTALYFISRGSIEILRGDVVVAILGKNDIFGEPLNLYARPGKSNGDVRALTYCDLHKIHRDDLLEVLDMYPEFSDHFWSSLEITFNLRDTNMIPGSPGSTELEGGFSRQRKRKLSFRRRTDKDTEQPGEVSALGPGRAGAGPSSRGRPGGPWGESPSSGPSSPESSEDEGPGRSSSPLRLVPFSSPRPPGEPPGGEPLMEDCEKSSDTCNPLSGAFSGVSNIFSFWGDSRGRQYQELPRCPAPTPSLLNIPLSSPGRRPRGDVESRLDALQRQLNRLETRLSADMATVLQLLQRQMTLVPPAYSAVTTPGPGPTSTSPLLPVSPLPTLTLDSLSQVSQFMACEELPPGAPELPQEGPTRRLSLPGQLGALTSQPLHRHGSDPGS
Glyceraldehyde-3-phosphate dehydrogenase, sequence (P04406 whole entry): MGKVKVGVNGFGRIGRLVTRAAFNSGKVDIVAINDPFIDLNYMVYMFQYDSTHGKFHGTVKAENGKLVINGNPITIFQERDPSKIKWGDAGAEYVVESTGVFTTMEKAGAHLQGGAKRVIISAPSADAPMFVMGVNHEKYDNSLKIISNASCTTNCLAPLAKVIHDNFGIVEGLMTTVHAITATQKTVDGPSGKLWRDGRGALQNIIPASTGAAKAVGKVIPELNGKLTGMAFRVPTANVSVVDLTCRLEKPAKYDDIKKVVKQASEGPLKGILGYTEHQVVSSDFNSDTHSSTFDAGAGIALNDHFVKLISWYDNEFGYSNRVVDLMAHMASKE
Mitogen-activated protein kinase 10, sequence (P53779 whole entry): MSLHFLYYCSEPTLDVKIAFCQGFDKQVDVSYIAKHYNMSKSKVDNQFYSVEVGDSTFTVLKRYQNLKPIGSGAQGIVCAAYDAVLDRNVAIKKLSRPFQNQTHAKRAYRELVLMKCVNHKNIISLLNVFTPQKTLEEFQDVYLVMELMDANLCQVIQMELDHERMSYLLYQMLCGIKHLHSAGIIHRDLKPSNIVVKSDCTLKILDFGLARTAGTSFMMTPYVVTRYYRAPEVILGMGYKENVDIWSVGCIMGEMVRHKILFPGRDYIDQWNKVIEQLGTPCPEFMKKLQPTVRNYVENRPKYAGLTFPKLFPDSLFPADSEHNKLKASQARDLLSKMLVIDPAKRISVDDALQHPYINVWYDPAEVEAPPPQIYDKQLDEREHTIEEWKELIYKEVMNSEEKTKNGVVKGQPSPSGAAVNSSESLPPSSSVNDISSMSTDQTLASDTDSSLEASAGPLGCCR
Steroidogenic factor 1, sequence (Q13285 whole entry): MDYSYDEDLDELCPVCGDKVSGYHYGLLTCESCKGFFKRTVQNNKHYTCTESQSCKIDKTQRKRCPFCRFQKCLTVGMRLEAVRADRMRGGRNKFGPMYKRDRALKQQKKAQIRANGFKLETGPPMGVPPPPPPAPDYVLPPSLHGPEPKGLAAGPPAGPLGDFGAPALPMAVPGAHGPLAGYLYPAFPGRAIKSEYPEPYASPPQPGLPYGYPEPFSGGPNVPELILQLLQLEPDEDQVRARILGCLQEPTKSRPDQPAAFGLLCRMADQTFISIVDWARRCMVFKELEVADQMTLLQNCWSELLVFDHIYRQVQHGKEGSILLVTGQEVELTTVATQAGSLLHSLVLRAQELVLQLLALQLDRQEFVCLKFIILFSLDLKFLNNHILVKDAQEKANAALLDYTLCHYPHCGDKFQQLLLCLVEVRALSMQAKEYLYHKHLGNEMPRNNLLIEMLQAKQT
Estrogen receptor beta, sequence (Q92731 whole entry): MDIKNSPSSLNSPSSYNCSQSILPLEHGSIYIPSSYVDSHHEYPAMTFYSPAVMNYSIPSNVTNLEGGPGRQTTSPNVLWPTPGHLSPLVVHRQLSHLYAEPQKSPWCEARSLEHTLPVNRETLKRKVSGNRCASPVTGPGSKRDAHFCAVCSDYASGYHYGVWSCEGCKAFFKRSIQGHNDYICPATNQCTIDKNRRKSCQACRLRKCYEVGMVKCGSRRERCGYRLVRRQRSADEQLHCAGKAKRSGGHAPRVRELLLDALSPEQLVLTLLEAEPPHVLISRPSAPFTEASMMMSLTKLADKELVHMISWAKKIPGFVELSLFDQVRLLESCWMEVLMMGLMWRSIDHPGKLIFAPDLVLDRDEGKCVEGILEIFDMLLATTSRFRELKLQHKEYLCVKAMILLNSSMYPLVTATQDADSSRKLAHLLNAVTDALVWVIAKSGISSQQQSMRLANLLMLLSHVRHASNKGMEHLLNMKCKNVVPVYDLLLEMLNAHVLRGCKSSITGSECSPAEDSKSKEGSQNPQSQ
Nuclear receptor subfamily 5 group A member 2, sequence (O00482 whole entry): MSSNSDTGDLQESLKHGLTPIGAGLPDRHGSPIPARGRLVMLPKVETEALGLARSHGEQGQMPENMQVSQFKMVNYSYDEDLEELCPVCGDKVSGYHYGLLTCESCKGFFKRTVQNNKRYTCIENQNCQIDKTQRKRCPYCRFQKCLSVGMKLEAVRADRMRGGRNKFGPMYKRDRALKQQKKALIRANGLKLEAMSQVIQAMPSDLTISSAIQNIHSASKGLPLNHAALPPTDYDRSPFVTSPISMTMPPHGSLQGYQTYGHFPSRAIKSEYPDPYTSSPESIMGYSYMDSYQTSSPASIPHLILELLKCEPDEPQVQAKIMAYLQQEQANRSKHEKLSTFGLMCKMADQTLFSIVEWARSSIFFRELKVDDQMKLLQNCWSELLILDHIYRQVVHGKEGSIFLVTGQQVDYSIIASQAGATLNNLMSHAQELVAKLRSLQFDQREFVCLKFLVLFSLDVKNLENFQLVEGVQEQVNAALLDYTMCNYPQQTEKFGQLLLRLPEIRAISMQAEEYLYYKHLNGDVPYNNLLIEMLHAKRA
Cytochrome P450 2C19, sequence (P33261 whole entry): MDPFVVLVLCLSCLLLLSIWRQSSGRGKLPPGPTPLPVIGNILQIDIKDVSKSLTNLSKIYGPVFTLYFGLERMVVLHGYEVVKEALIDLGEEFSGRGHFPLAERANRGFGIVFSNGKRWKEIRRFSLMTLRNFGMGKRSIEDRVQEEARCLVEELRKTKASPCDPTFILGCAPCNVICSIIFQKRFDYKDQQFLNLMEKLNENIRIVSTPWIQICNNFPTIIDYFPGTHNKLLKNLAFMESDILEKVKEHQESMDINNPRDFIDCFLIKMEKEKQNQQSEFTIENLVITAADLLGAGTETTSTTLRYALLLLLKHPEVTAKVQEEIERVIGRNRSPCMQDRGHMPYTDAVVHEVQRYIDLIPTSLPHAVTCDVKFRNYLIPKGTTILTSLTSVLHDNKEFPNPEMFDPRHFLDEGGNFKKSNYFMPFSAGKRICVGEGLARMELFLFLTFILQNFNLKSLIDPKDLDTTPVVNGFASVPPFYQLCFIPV

In the case of `CN1CCN(C2=C(Cl)C(=O)N(c3cccc([N+](=O)[O-])c3)C2=O)CC1`, the IC50 [1] is reported as > 100 µM (not active), the IC50 (Bcl-2-related protein A1 [2]) is reported as 6.79 µM (active) and the IC50 (Bcl-2-related protein A1 [3]) is reported as 3.94 µM (active).

For `Cc1cccc(N2C(=O)C(Cl)=C(N3CCN(CCOCCO)CC3)C2=O)c1`, the IC50 [1] was > 100 µM (not active), the IC50 (Bcl-2-related protein A1 [2]) was 4.46 µM (active) and the IC50 (Bcl-2-related protein A1 [3]) was 6.43 µM (active).

With `O=c1oc2ccc(Cl)cc2nc1/C=C(\O)c1cccs1` the EC50 [4] was 153 µM (active), the EC50 [5] was 230 µM (active) and the IC50 [6] was 2.2 µM (active).

For `Cc1c(Cl)cccc1NC(=O)CC1SCCNC1=O` (configuration not stated), the IC50 (Estrogen receptor beta) was > 50 µM (not active).

With `Cc1cc(C(=O)COC(=O)CN2C(=O)NC(C)(C)C2=O)c(C)n1Cc1ccccc1` the EC50 [7] was > 30 µM (not active).

For `Cc1cccc(Cn2c(O)c(N=NC(S)=Nc3ccccc3F)c3ccccc32)c1`, the EC50 [8] was 0.663 µM (active), the EC50 [9] was 2.68 µM (active) and the EC50 [10] was 1.09 µM (active).

In the case of `Cc1cc(C(=O)CN2CCN(C(=O)c3ccco3)CC2)c(C)n1Cc1ccccc1`, the EC50 [7] is reported as > 30 µM (not active).

In the case of `COc1cccc(NC(=O)/C=C\c2ccc(Cl)cc2)c1`, the AC50 (Cytochrome P450 2C19) is reported as 3.98 µM (inconclusive).

In the case of `CCn1c(SCC(=O)Nc2ccc(Cl)cc2)nnc1C1CC1`, the IC50 [11] is reported as 35.9 µM (inactive), the IC50 (Steroidogenic factor 1) is reported as 6.13 µM (active) and the IC50 [12] is reported as > 93.1 µM (not active). For the same molecule, the IC50 [13] was 35.9 µM (inactive).

For `C=CCn1c(N)cc(=O)nc1SCC(=O)Nc1ccccc1`, the EC50 [14] was > 50 µM (not active).

With `CSC(=S)N/N=C/c1ccc(Br)cc1` the IC50 (HEK293 [15]) was > 20 µM (inactive), the IC50 (HEK293 [16]) was > 20 µM (inactive) and the EC50 (HEK293 [17]) was > 20 µM (inactive). For the same molecule, the EC50 [10] was 0.3 µM (active) and the IC50 (HEK293 [18]) was 14.2 µM (inactive).

For `C/C(=N\Cc1ccco1)c1c(C)nn(-c2nc3ccccc3s2)c1O`, the IC50 [19] was 11.5 µM (active), the IC50 (Caspase-3) was 3.72 µM (active) and the IC50 [20] was 3.48 µM (active). The IC50 [12] was > 93.1 µM (not active) and the IC50 [21] was 9.47 µM (active).

With `COc1cc2c(cc1OC)C1=C(C#N)CC/C(=N\C(=O)c3ccc(Cl)cc3)N1CC2` the EC50 [14] was 1.61 µM (active).
